Measurements taken from patent US4534971A, “Complexation of anthracycline and anthraquinone antibiotics by the apo riboflavin binding protein from eggs” (Regents of the University of Minnesota, priority 1982, dated 1985).
Entries after “also recorded” stand apart in the source; their conditions may differ. Read-outs that look alike come from different tables or passages of the source.

Tests used:
[1] = target: T1, apo riboflavin binding protein from eggs (Gallus gallus, UniProt P02752); assay: Titration of antibiotic with egg riboflavin binding protein; dissociation constant; design: species or system chicken
T1 construct: obtained in homogeneous form from chicken egg white; from tissue; host or cells: chicken egg white
T1 sequence (P02752 18-238): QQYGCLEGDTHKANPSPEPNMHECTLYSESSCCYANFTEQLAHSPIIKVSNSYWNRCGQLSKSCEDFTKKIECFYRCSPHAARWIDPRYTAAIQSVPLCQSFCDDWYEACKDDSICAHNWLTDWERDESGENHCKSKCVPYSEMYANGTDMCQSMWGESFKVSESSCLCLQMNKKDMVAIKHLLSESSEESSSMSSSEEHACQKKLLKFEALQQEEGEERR
Protocol: The purified protein may be stored, for example, frozen at -20° C. in 10 mM potassium phosphate, 1 mM EDTA pH 7.0 buffer, at concentrations between about 1 and 10 mM.
A working solution of adriamycin was obtained by dissolution in warm 0.035M potassium phosphate pH 7.0 buffer containing 0.15M NaCl and 0.5 mM EDTA and cooled to ambient temperature (24±2° C.). To a 3.0 mL solution containing 3 μM adriamycin was added 5.0 μL increments of a 0.49 mM binding protein solution in 10 mM potassium phosphate, 1 mM EDTA pH 7.0 buffer.
Daunomycin was dissolved in warm buffer, followed by cooling. […] AD-32 was dissolved in dimethylformamide.
The binding protein affinity of three anthracyclinones was determined: (±)-aklavinone, 7-deoxydaunomycinone and iso-7-deoxydaunomycinone. Aklavinone and 7-deoxydaunomycinone were made as concentrated solutions in dimethylformamide, and the solution concentrations determined by dilution into alcohol. Leuco iso-7-deoxydaunomycinone was dissolved in dimethylformamide and diluted into buffer. The general procedure of Example 1 was followed.
Solutions were prepared and admixed as previously described.

[2] = target: T1, apo riboflavin binding protein from eggs; assay: Anaerobic dithionite redox titration of the daunomycin-binding protein complex; design: species or system chicken
Excerpt: A further use of the antibiotic-protein complex is in redox titrations. Aqueous redox titrations of anthracyclines cannot be done. Although anthracycline glycosides are water soluble, loss of the glycoside (with its positive charge) provides the almost completely water insoluble 7-deoxyanthracyclinones. Unfortunately, glycoside loss is an integral aspect of anthracycline redox chemistry. The binding protein-anthracyclinecomplex has been used for anaerobic aqueous redox titrations. Dithionite reduction of the anthracycline glycoside provides, in a 2e^- process, the 7-deoxyanthracyclinone, via reductive elimination. The bound 7-deoxyanthracyclinone is then further 2e^- reduced to the bound hydroquinone. Semi-quinone radical intermediates are observed transiently; these are stable neither in solution nor complexed to the binding protein. Oxidation of the hydroquinone is accomplished by several reagents (oxygen, hydrogen peroxide, ferricyanide, cytochrome c). In the case of 7-deoxydaunomycinone hydroquinone, a mixture of two products is produced upon oxidation; these are the chromo 7-deoxydaunomycinone (identical to the first 2e^- reduction intermediate) and its leuco isomer, 8-acetyl-7,8,9,10-tetrahydro-5,8,12-trihydroxy-1-methoxy-6,11-napthacenedione(iso-7-deoxydaunomycinone).
An anaerobic redox titration of the daunomycin-binding protein complex was done. […]

[3] = Stability of free and binding protein-complexed compound (isomerization, light, storage); type: physicochemical
Excerpt: Also of interest is the high affinity of the binding protein for iso-7-deoxydaunomycinone(8-acetyl-7,8,9,10-tetrahydro-5,8,12-trihydroxy-1- methoxy-6,11-napthacenedione). This compound is a kinetic product of 7-deoxydaunomycinone hydroquinone oxidation.
An anaerobic redox titration of the daunomycin-binding protein complex was done. The reducing agent used was dithionite anion. Spectrophotometric titrations were made on a Cary 219 spectrophotometer. Anaerobic titrations were done with gas tight syringes, with the deoxygenated solutions maintained under a positive pressure of O2 -free nitrogen. Dithionite was freshly prepared in O2 -free buffer and standardized by anaerobic riboflavin titration. Equilibration with dithionite is in all instances complete in seconds. […] Assignment of structure to this titration intermediate was confirmed by its isolation, and chromatographic comparison with an authentic sample. Further dithionite addition reduces the bound 7-deoxydaunomycinone to a new chromophore (λmax =407 nm). The hydroquinone is not further reduced, but is very easily oxidized upon mixing with oxidants such as oxygen, hydrogen peroxide, ferricyanide and cytochrome c. The absorption spectrum obtained following complete oxygen oxidation of the hydroquinone is different than any previous spectrum. Longer wavelength features, indicating the presence of 7-deoxydaunomycinone, are seen but a new chromophore (λmax approximately 445 nm) is also present. The structure of the compound corresponding to this chromophore is iso-7-deoxydaunomycinone on the basis of its spectroscopic data. In neutral aqueous buffer in the absence of the binding protein this compound promptly isomerizes to 7-deoxydaunomycinone (k=6×10^-4 s^-1). […] Binding protein stabilization is also reflected in an estimated 10-fold slower rate of dithionite reduction of the iso-7-deoxydaunomycinone compared to either 7-deoxydaunomycinone or daunomycin.

[4] = general procedure of Example 1, read-out: Kd (anthracycline glycosides, Examples 2-7)
[5] = general procedure of Example 1, read-out: Kd (anthracyclinones, Examples 8-10)
[6] = spectrophotometric, solutions prepared and admixed as previously described, read-out: Kd (anthraquinones and anthraquinone-like molecules, Examples 11-15)

CC[C@@]1(O)C[C@H](O)c2c(cc3c(c2O)C(=O)c2c(O)cccc2C3=O)[C@H]1C(=O)OC (relative stereo) [(±)-Aklavinone]
Kd [1]: 0.02 µM | binding to the binding protein (in words) [1]: both enantiomers of the racemic aklavinone (7S, 9R, 10R, and 7R, 9S, 10S) are equally well bound

CC(=O)[C@]1(O)Cc2c(O)c3c(c(O)c2[C@@H](O[C@H]2C[C@H](N)[C@H](O)[C@H](C)O2)C1)C(=O)c1ccccc1C3=O [4-Demethoxydaunomycin]
binding to the binding protein (in words) [1]: bind with an affinity hardly different than that of adriamycin | Kd [1, 4]: 0.3 µM

CC(=O)[C@@]1(O)Cc2c(O)c3c(c(O)c2[C@H](O[C@H]2C[C@H](N)[C@H](O)[C@H](C)O2)C1)C(=O)c1ccccc1C3=O [7,9-Diepi-4-demethoxydaunomycin]
binding to the binding protein (in words) [1]: binds most tightly of all | Kd [1, 4]: 0.08 µM

COc1cccc2c1C(=O)c1c(O)c3c(c(O)c1C2=O)C[C@@](O)(C(C)=O)CC3 [7-Deoxydaunomycinone]
Kd [1, 5]: 0.08 µM

CCCCC(=O)OCC(=O)[C@]1(O)Cc2c(O)c3c(c(O)c2[C@@H](O[C@H]2C[C@H](NC(=O)C(F)(F)F)[C@H](O)[C@H](C)O2)C1)C(=O)c1c(OC)cccc1C3=O [AD-32, N-trifluoroacetyl-14-valeryl-adriamycin]
binding to the binding protein (in words) [1]: binds well; also recorded: tight binding | formation of AD-32-binding protein complex ([1]; concentrated DMF solution added to slight molar excess of apo protein, approximately 20 μM each): quantitative formation of the AD-32-binding protein complex

CC[C@@]1(O)C[C@H](O[C@H]2C[C@H](N(C)C)[C@H](O[C@H]3C[C@H](O)[C@H](O[C@H]4CCC(=O)[C@H](C)O4)[C@H](C)O3)[C@H](C)O2)c2c(cc3c(c2O)C(=O)c2c(O)cccc2C3=O)[C@H]1C(=O)OC [Aclacinomycin A]
Kd [1]: 1 µM | binding to the binding protein (in words) [1]: bind with an affinity hardly different than that of adriamycin | binding to the binding protein (in words) ([1]; listed as aclacinomycin A): tight binding

COc1cccc2c1C(=O)c1c(O)c3c(c(O)c1C2=O)C[C@@](O)(C(=O)CO)C[C@@H]3O[C@H]1C[C@H](N)[C@H](O)[C@H](C)O1 [Adriamycin]
Kd [1]: 0.5 ± 0.1 µM | binding to the binding protein (in words) [1]: good binding

Cc1c(C(=O)O)c(O)cc2c1C(=O)c1c(O)c([C@@H]3O[C@H](CO)[C@@H](O)[C@H](O)[C@H]3O)c(O)c(O)c1C2=O [Carminic acid]
binding to the binding protein (in words) [1]: neither tetracycline nor carminic acid (an insect feeding deterrent) bind | Kd [1, 6]: > 250 µM

CN(C)CCCN1c2ccccc2Sc2ccc(Cl)cc21 [Chlorpromazine]
binding to the binding protein (in words) [1]: high affinity | Kd [1, 6]: ~1 µM

O=C1c2c(O)ccc(O)c2C(=O)c2c(NCCNCCO)ccc(NCCNCCO)c21 [DHAQ, 1,4-dihydroxy-5,8-bis[[2-(hydroxyethyl)amino]ethyl]-9. 10-anthracenedione]
binding to the binding protein (in words) [1]: bound weakly | Kd [1, 6]: 60 µM

COc1cccc2c1C(=O)c1c(O)c3c(c(O)c1C2=O)C[C@@](O)(C(C)=O)C[C@@H]3O[C@H]1C[C@H](N)[C@H](O)[C@H](C)O1 [Daunomycin]
Kd [1]: 0.4 µM | binding to the binding protein (in words) [1]: bind with an affinity hardly different than that of adriamycin | redox behaviour in titration (in words) ([2]; anaerobic, dithionite, oxidation by oxygen, hydrogen peroxide, ferricyanide, cytochrome c): first converted in a 2e^- process to 7-deoxydaunomycinone, with reductive elimination of the glycoside

COc1cccc2c(O)c3c(c(O)c12)C(=O)C1=C(C[C@@](O)(C(C)=O)CC1)C3=O [Iso-7-deoxydaunomycinone, 8-acetyl-7,8,9,10-tetrahydro-5,8,12-trihydroxy-1-methoxy-6,11-napthacenedione]
binding to the binding protein (in words) [1]: high affinity; also recorded: preferentially bound by the riboflavin binding protein | Kd [1, 5]: 0.02 µM | stability (in words) ([3]; complexed to the binding protein): stable in organic solvents and when complexed to the binding protein; also recorded: stable for days | stability (in words) ([3]; free compound, aqueous buffer or organic solvents): not stable in aqueous buffer to isomerization to 7-deoxydaunomycinone; also recorded: stable in organic solvents | rate constant k of isomerization to 7-deoxydaunomycinone ([3]; neutral aqueous buffer, absence of the binding protein): 0.0006 s⁻¹ | slower rate of dithionite reduction compared to either 7-deoxydaunomycinone or daunomycin ([2]; binding protein stabilization, estimated): ~10 fold

COC(=O)[C@@H]1c2cc3c(c(O)c2[C@@H](O[C@@H]2O[C@@H](C)[C@H](OC)[C@@](C)(OC)[C@H]2OC)C[C@]1(C)O)C(=O)c1c(O)cc2c(c1C3=O)O[C@@H]1O[C@@]2(C)[C@H](O)[C@@H](N(C)C)[C@@H]1O [Nogalomycin]
binding to the binding protein (in words) [1]: All save nogalomycin bind | Kd [1, 4]: > 1000 µM

CCN(CC)CCCC(C)Nc1c2ccc(Cl)cc2nc2ccc(OC)cc12 (centres unmarked) [Quinacrine]
binding to the binding protein (in words) [1]: high affinity

CN(C)[C@@H]1C(=O)C(C(N)=O)=C(O)[C@@]2(O)C(=O)C3=C(O)c4c(O)cccc4[C@@](C)(O)[C@H]3C[C@@H]12 [Tetracycline]
Kd [1]: > 250 µM | binding to the binding protein (in words) [1]: neither tetracycline nor carminic acid (an insect feeding deterrent) bind

Cc1cc2nc3c(=O)[nH]c(=O)nc-3n(C[C@H](O)[C@H](O)[C@H](O)CO)c2cc1C [riboflavin]
binding to the binding protein (in words) [1]: no compound is more tightly bound by the egg binding protein than riboflavin
